The target in assay [1] is T1, MDM2 (Homo sapiens, UniProt Q00987). Briefly: FP displacement of Texas Red-labelled p53 peptide from MDM2; binding confirmed by WaterLOGSY NMR.
Assay [2] concerns the target T1, MDM2. Nature of the assay: FP displacement of Texas Red-labelled p53 peptide from MDM2. Type of assay: binding.

T1 sequence (Q00987 whole entry): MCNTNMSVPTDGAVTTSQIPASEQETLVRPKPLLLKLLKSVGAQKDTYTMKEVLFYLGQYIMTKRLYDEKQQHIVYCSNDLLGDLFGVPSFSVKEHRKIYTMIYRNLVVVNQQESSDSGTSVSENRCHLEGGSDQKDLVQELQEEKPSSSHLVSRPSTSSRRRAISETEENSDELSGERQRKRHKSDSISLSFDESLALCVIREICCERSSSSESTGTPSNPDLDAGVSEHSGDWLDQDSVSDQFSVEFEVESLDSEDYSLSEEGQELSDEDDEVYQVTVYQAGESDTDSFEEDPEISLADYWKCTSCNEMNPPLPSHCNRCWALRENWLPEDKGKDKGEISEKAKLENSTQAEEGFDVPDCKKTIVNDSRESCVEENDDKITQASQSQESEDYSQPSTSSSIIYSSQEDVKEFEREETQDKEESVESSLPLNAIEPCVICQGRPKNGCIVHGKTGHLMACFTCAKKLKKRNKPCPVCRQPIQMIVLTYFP

Consider `CCCNc1nc(NCC(=O)OCC)c2nc(-c3cn(C)nn3)n(C3Cc4ccccc4C3)c2n1` [14f, 6-(Ethoxy-carbonyl-methylamino)-9-(2-indanyl)-8-(1-methyl-1H-1,2,3-triazol-4-yl)-2-(1-propylamino)purine], for which, on MDM2 [1], the IC50 (usually the concentration that inhibits the measured activity by half) turned out to be 10 µM. The compound `CCCNc1nc(N)c2nc(-c3cn(C)nn3)n(C3Cc4ccccc4C3)c2n1` [14j] yielded an IC50 at MDM2 [2] of 56 µM.

The values are drawn from article PMC4420247, “8-Triazolylpurines: Towards Fluorescent Inhibitors of the MDM2/p53 Interaction” (PLoS ONE, 2015).
